According to patent US10787457B2 (priority 2015, dated 2020):

Details: mouse hepatic microsome 0.25 mg/mL; 1 μM; 37° C. 30 minutes; NADPH-generating system

percentage of the remaining tested compounds (remaining %): 0%
Structure (SMILES): Cc1ccc(-c2nn(C(C)(C)C)c3ncnc(N)c23)cc1 [Compound 4 of Comparative Examples, 1-(tert-butyl)-3-(p-tolyl)pyrazolo[3,4-d]pyrimidin-4-amine]
